# Data reported in patent US9612237B2, “Ritalinic acid immunoassay” (Randox Laboratories Limited, priority 2013, dated 2017).
# Counter-ions that a name gives are not always drawn.
# Tests used:
# [1] = system: antisera generated in response to immunogen of Example 11; assay: Competitive chemiluminescent biochip immunoassay, antisera raised against immunogen of Example 11, conjugate of Example 12; type: binding, sheep; details: for Concentration exhibiting no cross-reactivity: value is the concentration at which no cross-reactivity was exhibited; for IC50 / % cross reactivity: biochip; for % cross reactivity: relative to methylphenidate = 100
# [2] = system: antibodies of the invention (antisera generated in response to immunogen of Example 5); assay: Competitive chemiluminescent biochip immunoassay, antiserum raised against immunogen of Example 5, HRP conjugate of Example 6; type: binding, sheep; details: for No measurable CR at given concentration: value is the concentration at which no cross-reactivity was exhibited; for Cross-reactivity / IC50: biochip; for Cross-reactivity: based on 100% specificity to RA; for IC50: calibrator concentration which produces 50% B/B0
# [3] = system: antibodies of the invention (antisera generated in response to immunogen of Example 5); assay: ELISA, antiserum raised against immunogen of Example 5, HRP conjugate of Example 6; type: binding, sheep; details: for Ave OD: absorbance at 450 nm; for % CR: relative to ritalinic acid = 100
# Method: Immunogen (2 mg) from Examples 5 or 11 was prepared in PBS, mixed at a ratio of 50% immunogen in PBS to 50% Freund's Complete Adjuvant (Sigma, Product Number F5881) and emulsified by repeatedly passing the mixture through a tip on the end of a 1 ml syringe, until semi-solid. The emulsified mixture (1 ml) was injected intramuscularly into the sheep (the primary immunisation dose). Further injections (boosts) were prepared (1 mg of immunogen is prepared in PBS and mixed at a ratio of 50% immunogen PBS/50% Freunds Incomplete adjuvant, Sigma, Product Number—F5506) and injected (1 ml) intramuscularly at monthly intervals. Serum was sampled monthly by collection of whole blood from the jugular vein for evaluation of the antibody titre. Prior to immobilisation on a solid substrate (for example, the biochip), the serum was purified using caprylic acid/ammonium sulphate precipitation, as described for example in Chapter 4 of “Making and Using Antibodies—A Practical Handbook” 2nd Edition, edited by G C Howard and M R Kaser, CRC Press.
# The ELISA data provided below correspond to the same immunogen, antibody and tracer combination used to generate the Biochip standard curves, i.e. antibodies of the invention (antisera generated in response to immunogen of Example 5) and (2-(4-aminophenyl)-2-(piperidin-2-yl) acetic acid conjugated to HRP (Example 6). The assay methodology used to generate the ELISA data was standard ELISA methodology. Briefly, a microtitre plate was coated with Ig fraction of the antiserum produced at 5 μg/ml, prepared in Tris buffer, pH8.5. The coated plate was simultaneously incubated with calibrator/sample (from 0 ng/ml-80 ng/ml) and HRP conjugate at ⅛K dilution. After washing and substrate addition, absorbances were read at 450 nm. The absorbance in each well was inversely proportional to the concentration of ritalinic acid or methylphenidate hydrochloride in the calibrator/sample added to that well.
# [4] = system: Abcam polyclonal sheep antibody to MPH; details: Abcam antibody raised using MPH-BTG as the immunogen; cited from earlier work
# [5] = Methylphenidate calibrator 78.13 ng/ml
# [6] = Methylphenidate calibrator 156.25 ng/ml
# [7] = Methylphenidate calibrator 312.50 ng/ml
# [8] = Methylphenidate calibrator 625 ng/ml
# [9] = Methylphenidate calibrator 1,250.00 ng/ml
# [10] = Methylphenidate calibrator 2,500.00 ng/ml
# [11] = Methylphenidate calibrator 5,000.00 ng/ml
# [12] = Methylphenidate calibrator 10,000.00 ng/ml
molecule,measurement,setting,value
CC(=O)Nc1ccc(O)cc1 [Acetoaminophen],Concentration exhibiting no cross-reactivity,[1],2500 µg/mL
same,No measurable CR at given concentration,[2],1000 µg/mL
CCO[C@@H]1O[C@H](C(=O)O)[C@@H](O)[C@H](O)[C@H]1O [Ethyl glucuronide],Concentration exhibiting no cross-reactivity,[1],100 µg/mL
same,No measurable CR at given concentration,[2],100 µg/mL
CCOC(=O)C(c1ccccc1)C1CCCCN1 (stereo not drawn) [Ethylphenidate],No measurable CR at given concentration,[2],100 µg/mL
O=C(CCCN1CCC(O)(c2ccc(Cl)cc2)CC1)c1ccc(F)cc1 [Haloperidol],Concentration exhibiting no cross-reactivity,[1],10 µg/mL
same,No measurable CR at given concentration,[2],10 µg/mL
CC(C)Cc1ccc(C(C)C(=O)O)cc1 (stereo not drawn) [Ibuprofen],Concentration exhibiting no cross-reactivity,[1]; listed as ibuprofen,1000 µg/mL
same,No measurable CR at given concentration,[2],1000 µg/mL
COC(=O)C(c1ccccc1)C1CCCCN1 (stereo not drawn) [Methylphenidate Hydrochloride],IC50,[3],>>>80 ng/ml
same,Ave OD,[3]; calibrator 1.25 ng/ml,1.677
same,Ave OD,[3]; calibrator 2.5 ng/ml,1.644
same,Ave OD,[3]; calibrator 5 ng/ml,1.635
same,Ave OD,[3]; calibrator 10 ng/ml,1.563
same,Ave OD,[3]; calibrator 20 ng/ml,1.476
same,Ave OD,[3]; calibrator 40 ng/ml,1.402
same,Ave OD,[3]; calibrator 80 ng/ml,1.311
same,B/Bo,[3]; calibrator 1.25 ng/ml,101.9
same,B/Bo,[3]; calibrator 2.5 ng/ml,99.9
same,B/Bo,[3]; calibrator 5 ng/ml,99.4
same,B/Bo,[3]; calibrator 10 ng/ml,95.0
same,B/Bo,[3]; calibrator 20 ng/ml,89.7
same,B/Bo,[3]; calibrator 40 ng/ml,85.2
same,B/Bo,[3]; calibrator 80 ng/ml,79.7
same,% CR,[3],<<<10.5%
"COC(=O)C(c1ccccc1)C1CCCCN1 (stereo not drawn) [Methylphenidate, methylphenidate]",IC50,[1],2.6 ng/mL
same,% cross reactivity,[1],100%
same,B/B0 %,[2]; [5],87%
same,RLU,[2]; [5],3878 RLU
same,B/B0 %,[2]; [6],81%
same,RLU,[2]; [6],3604 RLU
same,B/B0 %,[2]; [7],75%
same,RLU,[2]; [7],3319 RLU
same,B/B0 %,[2]; [8],66%
same,RLU,[2]; [8],2912 RLU
same,B/B0 %,[2]; [9],51%
same,RLU,[2]; [9],2244 RLU
same,B/B0 %,[2]; [10],34%
same,RLU,[2]; [10],1517 RLU
same,B/B0 %,[2]; [11],23%
same,RLU,[2]; [11],1015 RLU
same,B/B0 %,[2]; [12],16%
same,RLU,[2]; [12],697 RLU
same,Cross-reactivity,[2],Cross-reactivity 0.4%
same,IC50,[2],"IC50 = 1,323.50 ng/ml"
CNCCC[C@@]1(c2ccc(F)cc2)OCc2cc(C#N)ccc21 [N-desmethylescilatopram],No measurable CR at given concentration,[2],10 µg/mL
N[C@H]1CC[C@@H](c2ccc(Cl)c(Cl)c2)c2ccccc21 [Norsertraline],No measurable CR at given concentration,[2],10 µg/mL
CNCCC=C1c2ccccc2CCc2ccccc21 [Nortriptylene],No measurable CR at given concentration,[2],10 µg/mL
"O=C(O)C(c1ccccc1)C1CCCCN1 (stereo not drawn) [RA, ritalinic acid]",IC50,[1],260 ng/mL
same,% cross reactivity,[1],1%
same,% cross reactivity,[1]; listed as ritalinic acid,1.0%
same,Cross-reactivity,[4],less than 0.9%
same,B/B0 %,[2]; RA calibrator 3.91 ng/ml,65%
same,RLU,[2]; RA calibrator 3.91 ng/ml,3459 RLU
same,B/B0 %,[2]; RA calibrator 7.81 ng/ml,40%
same,RLU,[2]; RA calibrator 7.81 ng/ml,2552 RLU
same,B/B0 %,[2]; RA calibrator 15.63 ng/ml,31%
same,RLU,[2]; RA calibrator 15.63 ng/ml,1980 RLU
same,B/B0 %,[2]; RA calibrator 31.25 ng/ml,18%
same,RLU,[2]; RA calibrator 31.25 ng/ml,1111 RLU
same,B/B0 %,[2]; RA calibrator 62.50 ng/ml,11%
same,RLU,[2]; RA calibrator 62.50 ng/ml,677 RLU
same,B/B0 %,[2]; RA calibrator 125.00 ng/ml,6%
same,RLU,[2]; RA calibrator 125.00 ng/ml,374 RLU
same,B/B0 %,[2]; RA calibrator 250.00 ng/ml,4%
same,RLU,[2]; RA calibrator 250.00 ng/ml,247 RLU
same,B/B0 %,[2]; RA calibrator 500.00 ng/ml,2%
same,RLU,[2]; RA calibrator 500.00 ng/ml,134 RLU
same,Cross-reactivity,[2],Cross-reactivity 100%
same,IC50,[2],"IC50 = 5.21 ng/ml,"
same,IC50,[3],8.41 ng/mL
same,Ave OD,[3]; calibrator 1.25 ng/ml,1.346
same,Ave OD,[3]; calibrator 2.5 ng/ml,1.169
same,Ave OD,[3]; calibrator 5 ng/ml,0.987
same,Ave OD,[3]; calibrator 10 ng/ml,0.751
same,Ave OD,[3]; calibrator 20 ng/ml,0.584
same,Ave OD,[3]; calibrator 40 ng/ml,0.424
same,Ave OD,[3]; calibrator 80 ng/ml,0.311
same,B/Bo,[3]; calibrator 1.25 ng/ml,82.4
same,B/Bo,[3]; calibrator 2.5 ng/ml,71.5
same,B/Bo,[3]; calibrator 5 ng/ml,60.4
same,B/Bo,[3]; calibrator 10 ng/ml,46.0
same,B/Bo,[3]; calibrator 20 ng/ml,35.7
same,B/Bo,[3]; calibrator 40 ng/ml,26.0
same,B/Bo,[3]; calibrator 80 ng/ml,19.0
same,% CR,[3],100%
O=C(O)c1ccccc1O [Salicylic acid],Concentration exhibiting no cross-reactivity,[1],1000 µg/mL
same,No measurable CR at given concentration,[2],1000 µg/mL
COc1cccc(C2(O)CCCCC2CN(C)C)c1 (stereo not drawn) [Tramadol],No measurable CR at given concentration,[2],10 µg/mL
CNCCC(Oc1ccc(C(F)(F)F)cc1)c1ccccc1 (stereo not drawn) [fluoxetine],No measurable CR at given concentration,[2],100 µg/mL
Clc1cccc(N2CCNCC2)c1 [mCPP],No measurable CR at given concentration,[2],10 µg/mL
Cc1ccc(-c2nc3ccc(C)cn3c2CC(=O)N(C)C)cc1 [zolpidem tartrate],Concentration exhibiting no cross-reactivity,[1],10 µg/mL
CN1CCN(C(=O)OC2c3nccnc3C(=O)N2c2ccc(Cl)cn2)CC1 (stereo not drawn) [zopiclone],Concentration exhibiting no cross-reactivity,[1],10 µg/mL
Dextromorphan,No measurable CR at given concentration,[2],10 µg/mL
dextrorphan tartrate salt,Concentration exhibiting no cross-reactivity,[1],0.25 µg/mL
salicylic acid B-D glucuronide,Concentration exhibiting no cross-reactivity,[1],125 µg/mL
